The text below walks through data of ChEMBL document CHEMBL1128626, “The synthesis and biological activity of enediyne minor groove binding hybrids” (Bioorg Med Chem Lett, 1995).

The test system of experiment [1] is Nucleic Acid. The experiment can be described thus: Concentration of drug which induced cleavage of 50% of PM2 supercoiled DNA in the presence of beta-mercaptoethanol. In kind it is functional.
The subject of experiment [2] is Nucleic Acid. The experiment in a line: Concentration of drug which induced cleavage of 50% of PM2 supercoiled DNA in the absence of beta-mercaptoethanol. It is filed as functional.
In experiment [3] the test system is HCT-116. The experiment can be described thus: Cytotoxicity against HCT116 human colon tumor cell line. In kind it is functional, cell-based.

Some results are limits rather than exact numbers.

As for `O=C1C2=CCC[C@@]1(O)C#C/C=C\C#C[C@@H]2O`, the Cleavage amounted to 100 µM in experiment [1] and 1000 µM in experiment [2].

With `Cn1cc(NC(=O)c2cc(NC(=O)Cc3ccc(COCO[C@@]45C#C/C=C\C#C[C@H](O)C(=CCC4)C5=O)cc3)cn2C)cc1C(=O)NCCC(=N)N`, the Cleavage was found to be 10 µM in experiment [1] and 100 µM in experiment [2]. The compound also registered an IC50 in experiment [3] of 7.4 µM.

In the case of `C=C(OC)C(=O)Nc1cc(OC)c(OC)cc1C(=O)O[C@H]1C[C@H](O[C@@H]2C(=O)C(NC(=O)OC)=C3/C(=C\CSSSC)[C@]2(O)C#C/C=C\C#C[C@@H]3O[C@@H]2O[C@H](C)[C@@H](NO[C@H]3C[C@H](O)[C@H](SC)[C@@H](C)O3)[C@H](O)[C@H]2O[C@H]2C[C@H](OC)[C@@H](NC(C)C)CO2)O[C@@H](C)[C@H]1O` [ESPERAMICIN A1], the Cleavage is below 1 µM in experiment [1] and 10 µM in experiment [2]. The same compound showed an IC50 in experiment [3] of 1e-06 µM.

In the case of `Cn1cc(NC(=O)Cc2ccc(CO[C@H]3C#C/C=C\C#C[C@]4(O)CCC=C3C4=O)cc2)cc1C(=O)Cc1cc(C(=O)NCCC(=N)N)n(C)c1`, the results for the Cleavage in experiment [1] and in experiment [2] were below 1 µM and 10 µM, respectively. Half-maximal inhibition in experiment [3] (IC50) was put at 640 µM.

As a reminder, the IC50 is the concentration that gives 50% inhibition. The low end stands for inhibition by little substance, the high end for a need for much substance.
